For this test, the system named is Human Embryonic Kidney cells, strain 293A. Kind of test: Transfection of Human Embryonic Kidney cells with CMV-GFP plasmid complexed with SAINT-molecules, GFP expression by FACS. As to conditions: 293A cells, 12 well plates; 500 ng CMV-GFP plasmid complexed with 3.75 nm SAINT molecules or linker per well; FACS 48 hours after transfection. The format is cell-based. The source says:
FIG. 1 is the result of Human Embryonic Kidney cells, strain 293A, cultured in 12 well plates and are transfected with 4 combinations of SAINT-molecules (i.e. SAINT-18, SAINT-18 coupled to RGD, a mixture of SAINT-18 and SAINT-18 coupled to RGD, and SAINT-18 linker).
Human Embryonic Kidney cells are difficult to be transfected. When using these cells, main competing transfection methods (of other manufacturers), require several micrograms of plasmid DNA for successful transfection. Combined with SAINT-18, 1 μg (per 12 wells) normally results in a transfection rate above 90%. To be able to visualize the enhancing effect of the targeting moiety SAINT-18-RGD, in this protocol we used a low amount of plasmid DNA (500 ng per 12 wells). The structural formula of SAINT-linker-RGD is depicted in […]. In addition, an RGD-peptide is coupled to the SATA-group of the SAINT-Linker, as described in the present invention. The RGD group is a targeting moiety for the integrin receptor family and is though to increase the transfection efficacy. Human Embryonic Kidney cells, strain 293A, are cultured in 12 well plates and are transfected with 4 combinations of Saint-molecules (i.e. SAINT-18, SAINT-18 coupled to RGD, a mixture of SAINT-18 and SAINT-18 coupled to RGD, and only a linker molecule as a reference). […] 48 hours after transfection GFP expression is measured by FACS analysis. […]
(In general: In flow cytometry, cells or beads pass a laser one at a time.)

Structures are written as SMILES.

Consider `CCCCCCCC/C=C\CCCCCCCCC(CCCCNC(=O)C1CCC(CN2C(=O)CC(SCC(=O)NC(=N)NCCCC(C)C(=O)NCC(=O)NC(CC(=O)O)C(=O)O)C2=O)CC1)c1cc[n+](C)cc1.[Cl-]` (stereo not shown) [S18/RGD], for which the “transfection ability (percentage of GFP positive cells, FIG. 1, result in words)” value is recorded as “able to transfect cells”.

(Values after patent US20080085273A1, “VEHICLE FOR THE TRANSPORT OF A CHOSEN MOLECULE TO A CELL” (Synvolux IP B.V., priority 2004, published 2008).)
